The target of the test is CXCR4 (Homo sapiens, UniProt P61073). The test can be described thus: BRET analysis of β-arrestin2 interaction with CXCR4 in HEK 293 cells. Type of test: cell-based. The settings on record: 10 μM DFPQ, FIG. 2C. As for the experimental part:
FIGS. 2A-2C: […] Cells were read every 2 min post agonist addition. […]® ADRB2 cells (DiscoveRx) were maintained with the AssayCompleteTM Cell Culture kit (DiscoveRx catalog #92-[…]). […] HEK 293 cells stably overexpressing β2AR included 250 μg/ml G418. Cells were incubated at 37° C. in a humidified incubator with 5% CO2. […] Cells were read every three minutes for 18 minutes on a PolarStar Optima plate reader (BMG) to establish peak signal. […] Plates were incubated in the dark at room temperature for one hour. Luminescence was determined at room temperature (23-25° C.) on a PolarStar Optima plate reader (BMG). […] Screening data analysis and IC50 determination. […] Relative assay bias was calculated from the ratio of normalized cAMP and arrestin recruitment responses. […] BRET was measured using a Tecan Infinite F500 microplate reader. […] Bound [35 S]GTPγS was collected by rapid filtration on GF/B filters, washed 4 times with 4 ml of cold GTPγS wash buffer and analyzed by liquid scintillation counting. […] Immunoprecipitated proteins were separated by SDS-PAGE and analyzed by western blot using a β2AR C-terminal tail or phospho-specific antibody. […] Band intensity was measured by densitometry using ImageJ. […] Absorbance was then measured on a plate reader at 405 nm. […] Lungs were monitored for appropriate inflation. […] Images were analyzed post hoc using the ImageJ software. […] Cell-free area was quantitated using ImageJ. […]

Chain of CXCR4 (P61073 whole entry, species assumed): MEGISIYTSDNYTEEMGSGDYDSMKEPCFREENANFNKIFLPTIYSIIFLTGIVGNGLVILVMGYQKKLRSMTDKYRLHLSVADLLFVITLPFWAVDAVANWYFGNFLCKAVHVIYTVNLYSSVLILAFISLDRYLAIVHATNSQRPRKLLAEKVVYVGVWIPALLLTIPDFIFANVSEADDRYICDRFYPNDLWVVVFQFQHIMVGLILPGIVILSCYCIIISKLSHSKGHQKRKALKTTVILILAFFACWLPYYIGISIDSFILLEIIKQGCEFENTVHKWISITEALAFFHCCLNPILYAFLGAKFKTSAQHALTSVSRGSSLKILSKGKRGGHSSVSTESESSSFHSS

In the case of `Fc1ccc(Nc2nc(NC3CCCCC3)c3ccccc3n2)cc1F` [DFPQ, N^4-cyclohexyl-N^2-(3,4-difluorophenyl)quinazoline-2,4-diamine], the “β-arrestin2 interaction with CXCR4” value was “no effect”.

These data come from patent US20240166626A1, “Compounds and Methods for Preventing, Treating, or Ameliorating Airway Disease” (THOMAS JEFFERSON UNIVERSITY, priority 2021, published 2024).
